Results reported in US10570179B2, “Substituted urea depsipeptide analogs as activators of the CLPP endopeptidase” (priority 2016, dated 2020).
Values after ≈ are worked out from the molar mass of the structure shown. Where two headings read alike, the source gives them in different places. Numbered stars: 1 amine (or outer) side, 2 acyl side, 3 side chain; on linkers, the order of the positions; unused ones are H or OH. Bridge positions count the residues as written; N and C are the ends. Square brackets hold non-standard residues; d marks the D form. Peptide text beside a SMILES is read from it. * marks the point of attachment. Piperazine(2S-CO,4-Me) = CN1CCN[C@H](C(=O)O)C1; Phe(3-Me) = Cc1cccc(C[C@H](N)C(=O)O)c1; Pro(4S-Me) = C[C@@H]1CN[C@H](C(=O)O)C1; X4 = O=C1CN([*:1])[C@H](C(=O)[*:2])CN1; Pro(4R-Me) = C[C@H]1CN[C@H](C(=O)O)C1; Hyp = O=C(O)[C@@H]1C[C@@H](O)CN1; NH(3-Cl-phenyl) = Clc1cccc(N*)c1; NH(4-Cl-phenyl) = Clc1ccc(N*)cc1; NH(4-Et-phenyl) = CCc1ccc(N*)cc1; aThr = C[C@H](O)[C@H](N)C(=O)O; Pip = O=C(O)[C@@H]1CCCCN1; CO = O=C([*:1])[*:2]

Assays:
[1] = target: T1, S. aureus ClpP (Sa-ClpP) (Staphylococcus aureus, UniProt Q2G036); experiment: Casein-BODIPY digestion assay (ClpP activation); format: biochemical
T1 construct: made in house; host or cells: E. coli BL21 (DE3)

[2] = test system: S. aureus ATCC 29213; experiment: Minimal inhibitory concentration, microbroth dilution; format: cell-based; details: Staphylococcus aureus
Procedure, shortened: (§1)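 Compound was diluted twofold in the appropriate broth. Bacterial suspension (approx. 10^5 cfu/mL) was then added in equal volume, giving a maximum test concentration of 200 μM. After aerobic overnight incubation at 37 °C, wells were inspected visually for growth.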

[3] = test system: E. faecails; experiment: as above; format: cell-based; details: Enterococcus faecalis
Procedure, shortened: as §1

[4] = test system: MRSA NRS70; experiment: as above; format: cell-based; details: Staphylococcus aureus
Procedure, shortened: as §1

[5] = test system: S. aureus USA 300; experiment: as above; format: cell-based; details: Staphylococcus aureus
Procedure, shortened: as §1

[6] = test system: S. aureus ΔClpP; experiment: as above; format: cell-based, Staphylococcus aureus; details: MIC; ClpP inactivated
Procedure, shortened: as §1

[7] = ATCC29213, read-out: Minimal Inhibitory Concentrations (μM) S. aureus ATCC 29213, MIC
[8] = read-out: Minimal Inhibitory Concentrations (μM) E. faecails, MIC
[9] = read-out: Minimal Inhibitory Concentrations (μM) MRSA NRS70, MIC
[10] = USA300, read-out: Minimal Inhibitory Concentrations (μM) S. aureus USA 300, MIC
[11] = ATCC29213, MIC, read-out: Minimal Inhibitory Concentrations (μM) S. aureus ATCC 29213
[12] = MIC, read-out: Minimal Inhibitory Concentrations (μM) E. faecails
[13] = MIC, read-out: Minimal Inhibitory Concentrations (μM) MRSA NRS70
[14] = USA300, MIC, read-out: Minimal Inhibitory Concentrations (μM) S. aureus USA 300

T1 sequence (Q2G036 whole entry): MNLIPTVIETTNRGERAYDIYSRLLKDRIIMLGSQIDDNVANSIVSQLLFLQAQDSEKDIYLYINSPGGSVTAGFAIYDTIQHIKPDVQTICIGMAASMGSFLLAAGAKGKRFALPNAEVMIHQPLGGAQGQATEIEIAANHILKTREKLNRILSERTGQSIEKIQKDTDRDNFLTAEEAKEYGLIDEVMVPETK

| SMILES | EC50 [1] [nM] | MIC [2, 7] [µM] | MIC [3, 8] [µM] | MIC [4, 9] [µM] | MIC [5, 10] [µM] | Minimal Inhibitory Concentrations (μM) S. aureus ΔClpP [6] [µM] | MIC [2, 11] [µM] | MIC [3, 12] [µM] | MIC [4, 13] [µM] | MIC [5, 14] [µM] |
| --- | --- | --- | --- | --- | --- | --- | --- | --- | --- | --- |
| Cc1cccc(C[C@H](NC(=O)Nc2ccc(Cl)cc2)C(=O)N[C@@H]2C(=O)N3C[C@H](O)C[C@H]3C(=O)N3CCN(C)C[C@H]3C(=O)N[C@@H](C)C(=O)N3C[C@H](C)C[C@H]3C(=O)O[C@H]2C)c1 [Compound 68, (S)-2-(3-(4-CHLOROPHENYL)UREIDO)-N-((6AS,8R,12S,13S,15AS,17R,21S,23AS)-8-HYDROXY-2,13,17,21-TETRAMETHYL-6,11,15,20,23-PENTAOXOOCTADECAHYDRO-2H,6H,11H,15H-PYRAZINO[2,1-I]DIPYRROLO[2,1-C:2′,1′-L][1]OXA[4,7,10,13]TETRAAZACYCLOHEXADECIN-12-YL)-3-(M-TOLYL)PROPANAMIDE] ({NH(4-Cl-phenyl)-CO}-[Phe(3-Me)][aThr][Hyp][Piperazine(2S-CO,4-Me)]A[Pro(4R-Me)]; ester 2-C) | 290 ± 100 | 1.25 (≈ 1.05 µg/mL) | 0.625 (≈ 0.523 µg/mL) | 2.5 (≈ 2.09 µg/mL) | 0.625 (≈ 0.523 µg/mL) | >20 |  |  |  |  |
| Cc1cccc(C[C@H](NC(=O)Nc2cccc(Cl)c2)C(=O)N[C@@H]2C(=O)N3C[C@H](O)C[C@H]3C(=O)N3CCN(C)C[C@H]3C(=O)N[C@@H](C)C(=O)N3C[C@H](C)C[C@H]3C(=O)O[C@H]2C)c1 [Compound 69, (S)-2-(3-(3-CHLOROPHENYL)UREIDO)-N-((6AS,8R,12S,13S,15AS,17R,21S,23AS)-8-HYDROXY-2,13,17,21-TETRAMETHYL-6,11,15,20,23-PENTAOXOOCTADECAHYDRO-2H,6H,11H,15H-PYRAZINO[2,1-I]DIPYRROLO[2,1-C:2′,1′-L][1]OXA[4,7,10,13]TETRAAZACYCLOHEXADECIN-12-YL)-3-(M-TOLYL)PROPANAMIDE] ({NH(3-Cl-phenyl)-CO}-[Phe(3-Me)][aThr][Hyp][Piperazine(2S-CO,4-Me)]A[Pro(4R-Me)]; ester 2-C) | 390 ± 800 | 5 (≈ 4.19 µg/mL) | 5 (≈ 4.19 µg/mL) | 5 (≈ 4.19 µg/mL) | 2.5 (≈ 2.09 µg/mL) | >20 |  |  |  |  |
| Cc1cccc(C[C@H](NC(=O)Nc2cccc(Cl)c2)C(=O)N[C@@H]2C(=O)N3CCC[C@H]3C(=O)N3CC(=O)NC[C@H]3C(=O)N[C@@H](C)C(=O)N3C[C@H](C)C[C@H]3C(=O)O[C@H]2C)c1 [Compound 76, (S)-2-(3-(3-CHLOROPHENYL)UREIDO)-3-(M-TOLYL)-N-((6AS,12S,13S,15AS,17R,21S,23AS)-13,17,21-TRIMETHYL-3,6,11,15,20,23-HEXAOXOOCTADECAHYDRO-2H,6H,11H,15H-PYRAZINO[2,1-I]DIPYRROLO[2,1-C:2′,1′-L][1]OXA[4,7,10,13]TETRAAZACYCLOHEXADECIN-12-YL)PROPANAMIDE] ({NH(3-Cl-phenyl)-CO}-[Phe(3-Me)][aThr]P[X4]A[Pro(4R-Me)]; ester 2-C) | 5020 | > 20 | > 20 | > 20 | > 20 | >20 |  |  |  |  |
| CCc1ccc(NC(=O)N[C@@H](Cc2cccc(C)c2)C(=O)N[C@@H]2C(=O)N3C[C@H](O)C[C@H]3C(=O)N3CCCC[C@H]3C(=O)N[C@@H](C)C(=O)N3C[C@@H](C)C[C@H]3C(=O)O[C@H]2C)cc1 [Compound 65, (S)-2-(3-(4-ETHYLPHENYL)UREIDO)-N-((2S,6S,8AS,14AS,16R,20S,21S,23AS)-16-HYDROXY-2,6,21-TRIMETHYL-5,8,14,19,23-PENTAOXOOCTADECAHYDRO-1H,5H,14H,19H-PYRIDO[2,1-I]DIPYRROLO[2,1-C:2′,1′-L][1]OXA[4,7,10,13]TETRAAZACYCLOHEXADECIN-20-YL)-3-(M-TOLYL)PROPANAMIDE] ({NH(4-Et-phenyl)-CO}-[Phe(3-Me)][aThr][Hyp][Pip]A[Pro(4S-Me)]; ester 2-C) | 410 ± 100 |  |  |  |  | >20 | 0.313 (≈ 0.255 µg/mL) | 1.25 (≈ 1.02 µg/mL) | 0.156 (≈ 0.127 µg/mL) | 0.156 (≈ 0.127 µg/mL) |
| CCc1ccc(NC(=O)N[C@@H](Cc2cccc(C)c2)C(=O)N[C@H]2COC(=O)[C@@H]3C[C@@H](C)CN3C(=O)[C@H](C)NC(=O)[C@@H]3CCCCN3C(=O)[C@@H]3CCCN3C2=O)cc1 [Compound 70, (S)—N-((2R,6S,8AS,14AS,20S,23AS)-2,6-DIMETHYL-5,8,14,19,23-PENTAOXOOCTADECAHYDRO-1H,5H,14H,19H-PYRIDO[2,1-I]DIPYRROLO[2,1-C:2′,1′-L][1]OXA[4,7,10,13]TETRAAZACYCLOHEXADECIN-20-YL)-2-(3-(4-ETHYLPHENYL)UREIDO)-3-(M-TOLYL)PROPANAMIDE] | 290 ± 100 |  |  |  |  | >20 | 0.625 (≈ 0.491 µg/mL) | 0.156 (≈ 0.123 µg/mL) | 0.313 (≈ 0.246 µg/mL) | 0.313 (≈ 0.246 µg/mL) |
| Cc1cccc(C[C@H](NC(=O)Nc2cccc(Cl)c2)C(=O)N[C@H]2COC(=O)[C@@H]3C[C@H](C)CN3C(=O)[C@H](C)NC(=O)[C@@H]3CCCCN3C(=O)[C@@H]3CCCN3C2=O)c1 [Compound 54, (S)-2-(3-(3-CHLOROPHENYL)UREIDO)-N-((2S,6S,8AS,14AS,20S,23AS)-2,6-DIMETHYL-5,8,14,19,23-PENTAOXOOCTADECAHYDRO-1H,5H,14H,19H-PYRIDO[2,1-I]DIPYRROLO[2,1-C:2′,1′-L][1]OXA[4,7,10,13]TETRAAZACYCLOHEXADECIN-20-YL)-3-(M-TOLYL)PROPANAMIDE] | 1540 ± 1400 | > 20 | 10 (≈ 7.92 µg/mL) | 5 (≈ 3.96 µg/mL) | > 20 | >20 |  |  |  |  |
| Cc1cccc(C[C@H](NC(=O)Nc2cccc(Cl)c2)C(=O)N[C@@H]2C(=O)N3C[C@H](O)C[C@H]3C(=O)N3CCCC[C@H]3C(=O)N[C@@H](C)C(=O)N3C[C@H](C)C[C@H]3C(=O)O[C@H]2C)c1 [Compound 62, (S)-2-(3-(3-CHLOROPHENYL)UREIDO)-N-((2R,6S,8AS,14AS,16R,20S,21S,23AS)-16-HYDROXY-2,6,21-TRIMETHYL-5,8,14,19,23-PENTAOXOOCTADECAHYDRO-1H,5H,14H,19H-PYRIDO[2,1-I]DIPYRROLO[2,1-C:2′,1′-L][1]OXA[4,7,10,13]TETRAAZACYCLOHEXADECIN-20-YL)-3-(M-TOLYL)PROPANAMIDE] ({NH(3-Cl-phenyl)-CO}-[Phe(3-Me)][aThr][Hyp][Pip]A[Pro(4R-Me)]; ester 2-C) | 420 ± 100 | 1.25 (≈ 1.03 µg/mL) | 2.5 (≈ 2.06 µg/mL) | 0.625 (≈ 0.514 µg/mL) | 0.625 (≈ 0.514 µg/mL) | >20 |  |  |  |  |
| Cc1cccc(C[C@H](NC(=O)Nc2cccc(Cl)c2)C(=O)N[C@@H]2C(=O)N3CCC[C@H]3C(=O)N3CCCC[C@H]3C(=O)N[C@@H](C)C(=O)N3C[C@H](C)C[C@H]3C(=O)O[C@H]2C)c1 [Compound 64, (S)-2-(3-(3-CHLOROPHENYL)UREIDO)-3-(M-TOLYL)-N-((2R,6S,8AS,14AS,20S,21S,23AS)-2,6,21-TRIMETHYL-5,8,14,19,23-PENTAOXOOCTADECAHYDRO-1H,5H,14H,19H-PYRIDO[2,1-I]DIPYRROLO[2,1-C:2′,1′-L][1]OXA[4,7,10,13]TETRAAZACYCLOHEXADECIN-20-YL)PROPANAMIDE] ({NH(3-Cl-phenyl)-CO}-[Phe(3-Me)][aThr]P[Pip]A[Pro(4R-Me)]; ester 2-C) | 430 ± 200 | 0.625 (≈ 0.504 µg/mL) | 10 (≈ 8.06 µg/mL) | 0.625 (≈ 0.504 µg/mL) | 1.25 (≈ 1.01 µg/mL) | >20 |  |  |  |  |
